pIC50: −log10 of the molar value.
Experiments:
HIV-integrase = target: T1, HIV-integrase (Human immunodeficiency virus type 1 group M subtype B, UniProt P12497); test: HIV-Integrase Inhibition Activity (SPA strand transfer assay); format: biochemical; conditions: recombinant integrase, biotin labeled substrate DNA on SPA beads, P33 labeled target DNA; read-out: Activity (IC50 class, HIV-integrase inhibition)
T1 construct: Recombinant integrase (0.26 ng) was incubated with the beads
Description: HIV-Integrase Inhibition Activity. To evaluate in-vitro activity against HIV-integrase, 5 pmole of biotin labeled substrate DNA was bound to 100 μg of Streptavidin coated PVT SPA beads (Amersham Pharmacia Biotech). Recombinant integrase (0.26 ng) was incubated with the beads for 90 min at 37° C. Unbound enzyme was removed by washing the complex followed by addition of inhibitors and 0.1 fmol of P33 labeled target DNA. The reaction was stopped by adding EDTA to a final concentration of 10 mM. Samples were counted in TopCountNXT (Packard) and the CPM was used as a measure of integration. The reaction condition was as described in A. Engelman and R. Craigie, J. Virol. 69, 5908-5911 (1995). The sequences of substrate and target DNA were described in Nucleic Acid Research 22,1121-1122 (1994). Activity equal to A refers to a compound having IC50=0.005 to 0.010 μM while B and C denote compounds having IC50=0.010 to 0.030 μM and IC50>0.030 μM respectively.

Row | SMILES | pIC50 (HIV-integrase) | melting point
1 | O=C(NCc1ccc(F)cc1)c1nc2n(c(=O)c1O)CCN2Cc1ccccc1 [Example 16, N-(4-Fluorobenzyl)-1-benzyl-6-hydroxy-5-oxo-1,2,3,5-tetrahydroimidazo[1,2-a]pyrimidine-7-carboxamide] | < 7.52 | 225 °C
2 | CNC(=O)c1cc(F)ccc1CNC(=O)c1nc2n(c(=O)c1O)CCN2C(C)C [Example 6, N-(4-Fluoro-2-(methylcarbamoyl)benzyl)-6-hydroxy-1-isopropyl-5-oxo-1,2,3,5-tetrahydroimidazo[1,2-a]pyrimidine-7-carboxamide] | 7.52 to 8.00 | 205 °C (dec.)
3 | CC(C)N1CCn2c1nc(C(=O)NCc1ccc(F)cc1-n1cncn1)c(O)c2=O [Example 7, N-(4-Fluoro-2-(1H-1,2,4-triazol-1-yl)benzyl)-6-hydroxy-1-isopropyl-5-oxo-1,2,3,5-tetrahydroimidazo[1,2-a]pyrimidine-7-carboxamide] | 7.52 to 8.00 | –
4 | Cc1cc(CNC(=O)c2nc3n(c(=O)c2O)CCN3c2ccccc2)ccc1F [Example 21, N-(4-Fluoro-3-methylbenzyl)-6-hydroxy-5-oxo-1-phenyl-1,2,3,5-tetrahydroimidazo[1,2-a]pyrimidine-7-carboxamide] | 8.00 to 8.30 | –
5 | O=C(NCc1ccc(F)cc1-n1cncn1)c1nc2n(c(=O)c1O)CCN2c1ccccc1 [Example 23, N-(4-Fluoro-2-(1H-1,2,4-triazol-1-yl)benzyl)-6-hydroxy-5-oxo-1-phenyl-1,2,3,5-tetrahydroimidazo[1,2-a]pyrimidine-7-carboxamide] | 8.00 to 8.30 | –
6 | O=C(NCc1ccc(F)cc1N1CCCC1=O)c1nc2n(c(=O)c1O)CCN2c1ccccc1 [Example 27, N-(4-Fluoro-2-(2-oxopyrrolidin-1-yl)benzyl)-6-hydroxy-5-oxo-1-phenyl-1,2,3,5-tetrahydroimidazo[1,2-a]pyrimidine-7-carboxamide] | 7.52 to 8.00 | –
7 | CNC(=O)c1cc(F)ccc1CNC(=O)c1nc2n(c(=O)c1O)CCN2Cc1ccccc1 [Example 18, N-(4-Fluoro-2-(methylcarbamoyl)benzyl)-1-benzyl-6-hydroxy-5-oxo-1,2,3,5-tetrahydroimidazo[1,2-a]pyrimidine-7-carboxamide] | 7.52 to 8.00 | 206 °C (dec.)
8 | CS(=O)(=O)c1cc(F)ccc1CNC(=O)c1nc2n(c(=O)c1O)CCN2c1ccccc1 [Example 40] | 8.00 to 8.30 | –
9 | CC(C)N1CCn2c1nc(C(=O)NCc1ccc(F)cc1S(=O)(=O)N(C)C)c(O)c2=O [Example 8, N-(4-Fluoro-2-(N,N-dimethylsulfamoyl)benzyl)-6-hydroxy-1-isopropyl-5-oxo-1,2,3,5-tetrahydroimidazo[1,2-a]pyrimidine-7-carboxamide] | 8.00 to 8.30 | –
10 | Cc1cc(CNC(=O)c2nc3n(c(=O)c2O)CCN3C2CCCCC2)ccc1F [Example 33] | 8.00 to 8.30 | –
11 | CNC(=O)c1cc(F)ccc1CNC(=O)c1nc2n(c(=O)c1O)CCN2C [Example 3, N-(4-Fluoro-2-(methylcarbamoyl)benzyl)-6-hydroxy-1-methyl-5-oxo-1,2,3,5-tetrahydroimidazo[1,2-a]pyrimidine-7-carboxamide] | 7.52 to 8.00 | –
12 | O=C(NCc1ccc(F)cc1-n1cncn1)c1nc2n(c(=O)c1O)CCN2CCO [Example 31, N-(4-Fluoro-2-(1H-1,2,4-triazol-1-yl)benzyl)-6-hydroxy-(2-hydroxyethyl)-5-oxo-1,2,3,5-tetrahydroimidazo[1,2-a]pyrimidine-7-carboxamide] | 7.52 to 8.00 | 220 to 222 °C
13 | Cc1cc(CNC(=O)c2nc3n(c(=O)c2O)CCN3C)ccc1F [Example 2, N-(4-Fluoro-3-methylbenzyl)-6-hydroxy-1-methyl-5-oxo-1,2,3,5-tetrahydroimidazo[1,2-a]pyrimidine-7-carboxamide] | 7.52 to 8.00 | 187 to 189 °C
14 | CN1CCn2c1nc(C(=O)NCc1ccc(F)cc1)c(O)c2=O [Example 1, N-(4Fluorobenzyl)-6-hydroxy-1-methyl-5-oxo-1,2,3,5-tetrahydroimidazo[1,2-a]pyrimidine-7-carboxamide] | 7.52 to 8.00 | 212 °C
15 | Cc1ncnn1-c1cc(F)ccc1CNC(=O)c1nc2n(c(=O)c1O)CCN2C(C)C [Example 10, N-(4-Fluoro-2-(5-methyl-1H-1,2,4-triazol-1-yl)benzyl)-6-hydroxy-1-isopropyl-5-oxo-1,2,3,5-tetrahydroimidazo[1,2-a]pyrimidine-7-carboxamide] | < 7.52 | 212 °C
16 | CN(C)S(=O)(=O)c1cc(F)ccc1CNC(=O)c1nc2n(c(=O)c1O)CCN2C1CCCCC1 [Example 35] | 7.52 to 8.00 | –
17 | Cc1ncnn1-c1cc(F)ccc1CNC(=O)c1nc2n(c(=O)c1O)CCN2c1ccccc1 [Example 25, N-(4-Fluoro-2-(5-methyl-1H-1,2,4-triazol-1-yl)benzyl)-6-hydroxy-5-oxo-1-phenyl-1,2,3,5-tetrahydroimidazo[1,2-a]pyrimidine-7-carboxamide] | 7.52 to 8.00 | –
18 | COCCN1CCn2c1nc(C(=O)NCc1ccc(F)cc1S(=O)(=O)N(C)C)c(O)c2=O [Example 38] | < 7.52 | –

Row | SMILES | pIC50 (HIV-integrase) | melting point
19 | CCCCN1CCn2c1nc(C(=O)NCc1ccc(F)cc1S(=O)(=O)N(C)C)c(O)c2=O [Example 14, N-(4-Fluoro-2-(N,N-dimethylsulfamoyl)benzyl)-1-butyl-6-hydroxy-5-oxo-1,2,3,5-tetrahydroimidazo[1,2-a]pyrimidine-7-carboxamide] | 7.52 to 8.00 | –
20 | O=C(NCc1ccc(F)cc1)c1nc2n(c(=O)c1O)CCN2C1CCCCC1 [Example 32] | 8.00 to 8.30 | –
21 | CNC(=O)c1cc(F)ccc1CNC(=O)c1nc2n(c(=O)c1O)CCN2c1ccccc1 [Example 22, N-(4-Fluoro-2-(methylcarbamoyl)benzyl)-6-hydroxy-5-oxo-1-phenyl-1,2,3,5-tetrahydroimidazo[1,2-a]pyrimidine-7-carboxamide] | 7.52 to 8.00 | –
22 | CNC(=O)c1cc(F)ccc1CNC(=O)c1nc2n(c(=O)c1O)CCN2CCOC [Example 36] | 7.52 to 8.00 | –
23 | Cc1cc(CNC(=O)c2nc3n(c(=O)c2O)CCN3C(C)C)ccc1F [Example 5, N-(4-Fluoro-3-methylbenzyl)-6-hydroxy-1-isopropyl-5-oxo-1,2,3,5-tetrahydroimidazo[1,2-a]pyrimidine-7-carboxamide] | 7.52 to 8.00 | –
24 | CN(C)S(=O)(=O)c1cc(F)ccc1CNC(=O)c1nc2n(c(=O)c1O)CCN2c1ccccc1 [Example 26, N-(4-Fluoro-2-(N,N-dimethylsulfamoyl)benzyl)-6-hydroxy-5-oxo-1-phenyl-1,2,3,5-tetrahydroimidazo[1,2-a]pyrimidine-7-carboxamide] | 7.52 to 8.00 | –
25 | CC(C)N1CCn2c1nc(C(=O)NCc1ccc(F)cc1)c(O)c2=O [Example 4, N-(4-Fluorobenzyl)-6-hydroxy-1-isopropyl-5-oxo-1,2,3,5-tetrahydroimidazo[1,2-a]pyrimidine-7-carboxamide] | 7.52 to 8.00 | –
26 | CCCCN1CCn2c1nc(C(=O)NCc1ccc(F)cc1)c(O)c2=O [Example 11, N-(4-Fluorobenzyl)-1-butyl-6-hydroxy-5-oxo-1,2,3,5-tetrahydroimidazo[1,2-a]pyrimidine-7-carboxamide] | 8.00 to 8.30 | –
27 | O=C(NCc1ccc(F)cc1-n1cncn1)c1nc2n(c(=O)c1O)CCN2C1CCCCC1 [Example 34] | 8.00 to 8.30 | –
28 | Cc1cc(CNC(=O)c2nc3n(c(=O)c2O)CCN3Cc2ccccc2)ccc1F [Example 17, N-(4-Fluoro-3-methylbenzyl)-1-benzyl-6-hydroxy-5-oxo-1,2,3,5-tetrahydroimidazo[1,2-a]pyrimidine-7-carboxamide] | 7.52 to 8.00 | –
29 | Cc1ncn(-c2cc(F)ccc2CNC(=O)c2nc3n(c(=O)c2O)CCN3C(C)C)n1 [Example 9, N-(4-Fluoro-2-(3-methyl-1H-1,2,4-triazol-1-yl)benzyl)-6-hydroxy-1-isopropyl-5-oxo-1,2,3,5-tetrahydroimidazo[1,2-a]pyrimidine-7-carboxamide] | 7.52 to 8.00 | –
30 | Cc1ncn(-c2cc(F)ccc2CNC(=O)c2nc3n(c(=O)c2O)CCN3c2ccccc2)n1 [Example 24, N-(4-Fluoro-2-(3-methyl-1H-1,2,4-triazol-1-yl)benzyl)-6-hydroxy-5-oxo-1-phenyl-1,2,3,5-tetrahydroimidazo[1,2-a]pyrimidine-7-carboxamide] | 8.00 to 8.30 | –
31 | O=C(NCc1ccc(F)cc1)c1nc2n(c(=O)c1O)CCN2c1ccccc1 [Example 20, N-(4-Fluorobenzyl)-6-hydroxy-5-oxo-1-phenyl-1,2,3,5-tetrahydroimidazo[1,2-a]pyrimidine-7-carboxamide] | 8.00 to 8.30 | –
32 | COCCN1CCn2c1nc(C(=O)NCc1ccc(F)cc1-n1cncn1)c(O)c2=O [Example 37] | 7.52 to 8.00 | –
33 | O=C(NCc1ccc(F)cc1N1CCC1=O)c1nc2n(c(=O)c1O)CCN2c1ccccc1 [Example 28, N-(4-Fluoro-2-(2-oxoazetidin-1-yl)benzyl)-6-hydroxy-5-oxo-1-phenyl-1,2,3,5-tetrahydroimidazo[1,2-a]pyrimidine-7-carboxamide] | 8.00 to 8.30 | –
34 | CCCCN1CCn2c1nc(C(=O)NCc1ccc(F)c(C)c1)c(O)c2=O [Example 12, N-(4-Fluoro-3-methylbenzyl)-1-butyl-6-hydroxy-5-oxo-1,2,3,5-tetrahydroimidazo[1,2-a]pyrimidine-7-carboxamide] | 7.52 to 8.00 | –
35 | CCCCN1CCn2c1nc(C(=O)NCc1ccc(F)cc1-n1cncn1)c(O)c2=O [Example 41] | 7.52 to 8.00 | –
36 | COCCN1CCn2c1nc(C(=O)NCc1ccc(F)cc1-n1cnc(C)n1)c(O)c2=O [Example 39] | < 7.52 | –

— US7494984B2, “Substituted imidazo[1,2-a]pyrimidines as HIV viral DNA integrase inhibitors” (priority 2005, dated 2009)
